Data published in patent US20230257347A1 (priority 2020, published 2023).
Counter-ions that a name gives are not always drawn.

Key:
[1] = biological target: 5-Hydroxytryptamine (Serotonin) Receptor 2A (5-HT2A) (Homo sapiens, UniProt P28223); assay: Calcium flux secondary messenger assay, 5-HT2A; type: cell-based
[2] = biological target: T1, 5-Hydroxytryptamine (Serotonin) Receptor 3A (5-HT3A) (Homo sapiens, UniProt P46098); assay: Ion channel assay, 5-HT3A; type: cell-based
T1 sequence (P46098 24-478): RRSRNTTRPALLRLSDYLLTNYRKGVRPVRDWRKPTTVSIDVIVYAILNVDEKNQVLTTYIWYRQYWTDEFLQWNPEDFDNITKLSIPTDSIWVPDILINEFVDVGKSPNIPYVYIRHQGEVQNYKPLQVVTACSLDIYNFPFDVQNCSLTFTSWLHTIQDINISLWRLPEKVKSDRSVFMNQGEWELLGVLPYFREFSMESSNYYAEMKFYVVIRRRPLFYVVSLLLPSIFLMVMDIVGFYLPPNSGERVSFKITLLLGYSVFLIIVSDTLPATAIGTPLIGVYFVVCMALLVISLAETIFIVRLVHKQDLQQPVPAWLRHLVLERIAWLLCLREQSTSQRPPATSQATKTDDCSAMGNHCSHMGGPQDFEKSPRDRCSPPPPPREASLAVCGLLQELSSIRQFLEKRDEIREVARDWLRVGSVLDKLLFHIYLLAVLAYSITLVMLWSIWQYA

[3] = biological target: Adrenergic Receptor β2 (ADRB2) (Homo sapiens, UniProt P07550); assay: cAMP assay, ADRB2; type: cell-based
[4] = biological target: Adrenergic Receptor β1 (ADRB1) (Homo sapiens, UniProt P08588); assay: cAMP assay, ADRB1; type: cell-based
[5] = biological target: T2, Muscarinic acetylcholine Receptor M2 (CHRM2) (Homo sapiens, UniProt P08172); assay: cAMP assay, CHRM2; type: cell-based
T2 sequence (P08172 1-466): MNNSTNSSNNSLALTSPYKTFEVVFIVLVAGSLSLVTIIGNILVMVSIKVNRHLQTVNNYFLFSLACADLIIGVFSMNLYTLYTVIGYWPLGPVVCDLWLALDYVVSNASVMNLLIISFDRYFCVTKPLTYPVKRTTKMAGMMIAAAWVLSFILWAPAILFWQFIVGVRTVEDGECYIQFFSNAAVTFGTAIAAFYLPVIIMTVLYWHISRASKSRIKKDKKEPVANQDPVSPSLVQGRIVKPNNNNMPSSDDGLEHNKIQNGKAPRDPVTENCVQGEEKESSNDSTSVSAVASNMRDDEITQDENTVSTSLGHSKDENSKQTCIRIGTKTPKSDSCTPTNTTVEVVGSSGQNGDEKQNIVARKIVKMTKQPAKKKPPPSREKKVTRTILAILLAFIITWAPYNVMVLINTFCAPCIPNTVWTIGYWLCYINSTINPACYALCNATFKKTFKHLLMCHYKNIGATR

[6] = biological target: Muscarinic acetylcholine Receptor M3 (CHRM3) (Homo sapiens, UniProt P20309); assay: cell-based
[7] = biological target: Histamine Receptor H2 (HRH2) (Homo sapiens, UniProt P25021); assay: cAMP assay, HRH2; type: cell-based
[8] = biological target: Opioid Receptor Delta 1 (OPRD1) (Homo sapiens, UniProt P41143); assay: cAMP assay, OPRD1; type: cell-based
hERG = biological target: T3, hERG (Homo sapiens, UniProt Q12809); assay: Ion channel assay, hERG; type: cell-based
T3 construct: expressed in transfected cells

[9] = biological target: T4, N-methyl-D-aspartate (NMDA) Glutamate Receptor 1A/2B (NMDAR (1A/2B)) (Homo sapiens, UniProt Q05586+Q13224); assay: Ion channel assay, NMDAR (1A/2B); type: cell-based
T4 construct: expressed in transfected cells

[10] = biological target: T5, Norepinephrine transporter (NET) (Homo sapiens, UniProt P23975); assay: Monoamine transporter uptake assay (fluorescent substrate), NET; type: cell-based
T5 construct: expressed in transfected cells

[11] = biological target: T6, Serotonin transporter (SERT) (Homo sapiens, UniProt P31645); assay: cell-based
T6 construct: expressed in transfected cells

[12] = biological target: T7, Acetylcholinesterase (AChE) (Homo sapiens, UniProt P22303); assay: Enzymatic assay, AChE; type: biochemical
T7 construct: purchased R&D Systems

[13] = biological target: T8, Nuclear Hormone Glucocorticoid Receptor (GR) (Homo sapiens, UniProt P04150); assay: NHR Protein Interaction assay, GR; type: cell-based
T8 sequence (P04150 1-777): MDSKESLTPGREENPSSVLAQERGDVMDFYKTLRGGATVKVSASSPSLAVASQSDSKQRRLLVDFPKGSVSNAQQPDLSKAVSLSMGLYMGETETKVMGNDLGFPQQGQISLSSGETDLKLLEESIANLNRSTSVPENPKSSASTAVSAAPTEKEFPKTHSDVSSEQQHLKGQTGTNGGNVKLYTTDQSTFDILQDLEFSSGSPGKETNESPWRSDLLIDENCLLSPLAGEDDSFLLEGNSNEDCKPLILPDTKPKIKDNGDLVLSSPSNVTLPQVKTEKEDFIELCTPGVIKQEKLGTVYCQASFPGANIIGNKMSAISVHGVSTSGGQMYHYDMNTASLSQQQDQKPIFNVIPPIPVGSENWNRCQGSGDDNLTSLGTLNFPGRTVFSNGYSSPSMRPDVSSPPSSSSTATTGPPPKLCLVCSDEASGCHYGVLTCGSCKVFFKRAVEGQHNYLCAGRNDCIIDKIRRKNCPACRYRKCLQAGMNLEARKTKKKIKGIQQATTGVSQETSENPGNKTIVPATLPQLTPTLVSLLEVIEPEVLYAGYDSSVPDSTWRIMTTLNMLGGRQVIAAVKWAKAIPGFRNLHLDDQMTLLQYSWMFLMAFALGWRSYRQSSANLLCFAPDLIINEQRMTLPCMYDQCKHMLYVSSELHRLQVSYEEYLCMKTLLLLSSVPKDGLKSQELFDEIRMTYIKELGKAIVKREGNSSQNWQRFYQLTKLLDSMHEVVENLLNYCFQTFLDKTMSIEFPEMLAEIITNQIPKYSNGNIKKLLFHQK

[14] = biological target: T9, Lymphocyte Cell-Specific Protein-Tyrosine Kinase (LCK) (Homo sapiens, UniProt P06239); assay: KINOMEscan binding assay, LCK
T9 construct: made in house; host or cells: E. coli BL21-derived host (T7 phage) or HEK-293
T9 sequence (P06239 whole entry): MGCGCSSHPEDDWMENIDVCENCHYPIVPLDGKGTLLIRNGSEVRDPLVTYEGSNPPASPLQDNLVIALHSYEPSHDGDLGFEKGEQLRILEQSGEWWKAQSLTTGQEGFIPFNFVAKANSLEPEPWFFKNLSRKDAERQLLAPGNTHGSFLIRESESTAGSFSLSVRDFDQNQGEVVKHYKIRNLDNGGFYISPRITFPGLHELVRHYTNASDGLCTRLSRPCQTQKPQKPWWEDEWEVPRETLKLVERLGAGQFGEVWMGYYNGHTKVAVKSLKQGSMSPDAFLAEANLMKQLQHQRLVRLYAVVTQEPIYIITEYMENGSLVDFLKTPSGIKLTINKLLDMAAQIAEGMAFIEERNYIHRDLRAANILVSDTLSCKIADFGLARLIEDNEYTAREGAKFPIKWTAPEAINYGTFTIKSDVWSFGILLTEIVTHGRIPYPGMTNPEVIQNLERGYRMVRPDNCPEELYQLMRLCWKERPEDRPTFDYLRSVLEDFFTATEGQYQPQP

T5 sequence (P23975 whole entry): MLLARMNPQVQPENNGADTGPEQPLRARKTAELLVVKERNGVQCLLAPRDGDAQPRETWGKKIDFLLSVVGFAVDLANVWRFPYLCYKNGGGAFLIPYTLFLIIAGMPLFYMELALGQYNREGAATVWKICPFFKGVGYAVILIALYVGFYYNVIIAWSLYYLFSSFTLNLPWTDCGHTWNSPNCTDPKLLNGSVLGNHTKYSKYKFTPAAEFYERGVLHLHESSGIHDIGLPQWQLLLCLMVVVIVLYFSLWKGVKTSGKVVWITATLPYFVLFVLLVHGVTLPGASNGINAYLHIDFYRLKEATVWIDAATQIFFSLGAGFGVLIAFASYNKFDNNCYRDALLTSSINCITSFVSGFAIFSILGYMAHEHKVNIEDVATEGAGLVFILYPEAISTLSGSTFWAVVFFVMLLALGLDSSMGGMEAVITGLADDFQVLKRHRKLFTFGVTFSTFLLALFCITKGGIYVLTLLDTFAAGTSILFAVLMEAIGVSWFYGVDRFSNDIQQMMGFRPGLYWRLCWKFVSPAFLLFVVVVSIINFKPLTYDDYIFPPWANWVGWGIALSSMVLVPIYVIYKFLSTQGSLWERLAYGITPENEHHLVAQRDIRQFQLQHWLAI
5-Hydroxytryptamine (Serotonin) Receptor 2A (5-HT2A), sequence (P28223 whole entry, looked up): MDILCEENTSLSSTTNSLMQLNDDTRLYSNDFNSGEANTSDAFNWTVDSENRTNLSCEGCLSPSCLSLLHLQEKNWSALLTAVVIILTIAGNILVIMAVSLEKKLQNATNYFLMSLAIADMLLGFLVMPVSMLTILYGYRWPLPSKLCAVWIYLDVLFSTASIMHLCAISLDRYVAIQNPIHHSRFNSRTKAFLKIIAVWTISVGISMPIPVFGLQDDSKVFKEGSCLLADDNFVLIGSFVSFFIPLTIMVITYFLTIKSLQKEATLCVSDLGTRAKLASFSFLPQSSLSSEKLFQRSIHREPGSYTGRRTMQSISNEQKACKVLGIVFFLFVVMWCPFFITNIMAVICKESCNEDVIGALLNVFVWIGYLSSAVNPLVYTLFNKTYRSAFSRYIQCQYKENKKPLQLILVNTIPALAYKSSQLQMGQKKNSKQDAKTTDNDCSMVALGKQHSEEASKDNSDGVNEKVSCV
Opioid Receptor Delta 1 (OPRD1), sequence (P41143 whole entry): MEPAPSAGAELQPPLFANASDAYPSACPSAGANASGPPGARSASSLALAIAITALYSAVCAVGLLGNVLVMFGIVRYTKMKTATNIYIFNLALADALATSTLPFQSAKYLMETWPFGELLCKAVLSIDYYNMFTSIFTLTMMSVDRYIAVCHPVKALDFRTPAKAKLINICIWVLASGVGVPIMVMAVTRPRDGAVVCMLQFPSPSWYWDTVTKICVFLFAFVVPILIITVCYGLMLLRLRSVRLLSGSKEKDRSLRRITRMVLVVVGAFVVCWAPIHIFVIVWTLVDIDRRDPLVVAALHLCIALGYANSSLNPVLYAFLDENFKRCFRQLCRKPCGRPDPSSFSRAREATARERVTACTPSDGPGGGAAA
Adrenergic Receptor β1 (ADRB1), sequence (P08588 whole entry): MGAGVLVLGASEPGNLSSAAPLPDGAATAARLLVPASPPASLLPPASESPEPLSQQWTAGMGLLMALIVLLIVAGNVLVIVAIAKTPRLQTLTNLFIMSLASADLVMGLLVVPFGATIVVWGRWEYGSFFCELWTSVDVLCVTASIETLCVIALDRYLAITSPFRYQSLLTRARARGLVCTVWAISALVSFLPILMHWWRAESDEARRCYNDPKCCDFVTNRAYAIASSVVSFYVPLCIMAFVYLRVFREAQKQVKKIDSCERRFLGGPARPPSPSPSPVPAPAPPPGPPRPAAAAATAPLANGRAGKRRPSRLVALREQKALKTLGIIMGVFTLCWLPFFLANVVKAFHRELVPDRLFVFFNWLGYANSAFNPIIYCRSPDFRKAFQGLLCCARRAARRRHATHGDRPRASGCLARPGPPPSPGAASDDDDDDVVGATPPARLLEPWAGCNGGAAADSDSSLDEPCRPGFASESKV
Adrenergic Receptor β2 (ADRB2), sequence (P07550 whole entry): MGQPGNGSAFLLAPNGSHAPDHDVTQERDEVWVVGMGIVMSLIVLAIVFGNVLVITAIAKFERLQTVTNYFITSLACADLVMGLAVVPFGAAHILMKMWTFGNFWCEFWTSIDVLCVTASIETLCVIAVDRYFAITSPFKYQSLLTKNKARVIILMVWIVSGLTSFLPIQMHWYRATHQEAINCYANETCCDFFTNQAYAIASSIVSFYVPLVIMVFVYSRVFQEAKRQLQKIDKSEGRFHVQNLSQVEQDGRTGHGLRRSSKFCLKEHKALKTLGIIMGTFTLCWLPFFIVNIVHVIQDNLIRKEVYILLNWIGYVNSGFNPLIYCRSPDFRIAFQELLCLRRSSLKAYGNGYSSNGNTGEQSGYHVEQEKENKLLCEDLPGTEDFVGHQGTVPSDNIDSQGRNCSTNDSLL
T7 sequence (P22303 32-614): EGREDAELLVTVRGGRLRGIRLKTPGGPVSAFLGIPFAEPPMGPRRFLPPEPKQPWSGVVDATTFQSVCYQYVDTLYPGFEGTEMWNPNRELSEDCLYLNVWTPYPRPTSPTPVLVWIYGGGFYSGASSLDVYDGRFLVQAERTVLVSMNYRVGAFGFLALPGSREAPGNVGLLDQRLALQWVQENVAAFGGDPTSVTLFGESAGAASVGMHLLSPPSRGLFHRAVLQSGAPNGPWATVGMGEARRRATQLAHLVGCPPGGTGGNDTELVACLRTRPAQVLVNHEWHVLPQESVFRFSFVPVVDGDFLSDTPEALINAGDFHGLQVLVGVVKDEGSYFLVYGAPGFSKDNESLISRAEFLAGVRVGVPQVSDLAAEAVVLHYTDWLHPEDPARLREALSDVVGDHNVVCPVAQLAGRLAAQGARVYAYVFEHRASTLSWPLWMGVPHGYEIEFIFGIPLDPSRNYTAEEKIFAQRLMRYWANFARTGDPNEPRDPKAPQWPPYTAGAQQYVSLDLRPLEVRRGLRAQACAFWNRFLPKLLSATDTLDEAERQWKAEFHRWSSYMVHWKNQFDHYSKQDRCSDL
T3 sequence (Q12809 whole entry): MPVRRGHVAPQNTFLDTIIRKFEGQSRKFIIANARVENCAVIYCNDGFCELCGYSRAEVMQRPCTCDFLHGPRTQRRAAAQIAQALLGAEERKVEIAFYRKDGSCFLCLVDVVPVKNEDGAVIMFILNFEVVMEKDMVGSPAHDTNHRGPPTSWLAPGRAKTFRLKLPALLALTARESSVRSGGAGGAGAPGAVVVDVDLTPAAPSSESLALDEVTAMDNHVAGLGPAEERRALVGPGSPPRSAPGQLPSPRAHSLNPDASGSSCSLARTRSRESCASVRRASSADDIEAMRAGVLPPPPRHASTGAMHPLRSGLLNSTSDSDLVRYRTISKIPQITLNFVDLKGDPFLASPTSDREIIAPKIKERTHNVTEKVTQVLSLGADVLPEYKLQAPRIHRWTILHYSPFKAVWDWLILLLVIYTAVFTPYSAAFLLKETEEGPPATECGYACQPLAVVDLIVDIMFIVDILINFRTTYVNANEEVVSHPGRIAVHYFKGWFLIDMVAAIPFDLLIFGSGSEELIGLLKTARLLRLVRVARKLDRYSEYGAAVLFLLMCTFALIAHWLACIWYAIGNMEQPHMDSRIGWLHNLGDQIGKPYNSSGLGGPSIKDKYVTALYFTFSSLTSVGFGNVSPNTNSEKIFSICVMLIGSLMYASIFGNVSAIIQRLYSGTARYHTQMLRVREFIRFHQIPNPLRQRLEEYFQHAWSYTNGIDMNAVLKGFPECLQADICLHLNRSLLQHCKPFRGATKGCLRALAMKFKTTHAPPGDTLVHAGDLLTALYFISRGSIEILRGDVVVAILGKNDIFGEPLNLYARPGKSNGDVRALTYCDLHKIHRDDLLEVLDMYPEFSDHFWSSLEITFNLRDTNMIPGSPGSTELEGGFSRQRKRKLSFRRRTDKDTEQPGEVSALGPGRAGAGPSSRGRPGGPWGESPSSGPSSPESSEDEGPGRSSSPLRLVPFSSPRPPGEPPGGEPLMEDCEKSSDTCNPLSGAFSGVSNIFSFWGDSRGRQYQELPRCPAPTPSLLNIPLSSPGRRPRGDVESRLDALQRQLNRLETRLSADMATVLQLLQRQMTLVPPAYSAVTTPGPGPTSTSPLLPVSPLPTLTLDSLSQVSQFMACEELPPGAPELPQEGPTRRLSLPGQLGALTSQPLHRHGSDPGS
Histamine Receptor H2 (HRH2), sequence (P25021 whole entry): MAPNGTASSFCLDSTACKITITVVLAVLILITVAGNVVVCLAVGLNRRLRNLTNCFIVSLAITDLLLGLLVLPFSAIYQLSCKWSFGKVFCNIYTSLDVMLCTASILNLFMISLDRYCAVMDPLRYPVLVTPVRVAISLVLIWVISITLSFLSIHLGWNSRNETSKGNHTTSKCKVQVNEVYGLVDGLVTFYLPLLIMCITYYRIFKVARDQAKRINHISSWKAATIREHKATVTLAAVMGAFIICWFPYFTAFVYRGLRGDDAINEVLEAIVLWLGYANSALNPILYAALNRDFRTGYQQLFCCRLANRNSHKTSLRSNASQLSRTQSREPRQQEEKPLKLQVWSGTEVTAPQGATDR

Row | SMILES | EC50 [1] [µM] | IC50 [1] [µM] | EC50 [2] [µM] | IC50 [2] [µM] | EC50 [3] [µM] | IC50 [3] [µM] | EC50 [4] [µM] | IC50 [4] [µM] | EC50 [5] [µM] | IC50 [5] [µM] | EC50 [6] [µM] | IC50 [6] [µM] | EC50 [7] [µM] | IC50 [7] [µM] | EC50 [8] [µM] | IC50 [8] [µM] | IC50 (hERG) [µM] | EC50 [9] [µM] | IC50 [9] [µM] | IC50 [10] [µM] | also measured
1 | CNC(C)C(=O)c1c[nH]c2ccc(Br)cc12 (stereo not drawn) [BK-5Br-NM-AMT, 1-(5-bromo-1H-indol-3-yl)-2-(methylamino) propan-1-one hydrochloride] | > 10 | 8.63 | > 10 | 0.673 | > 10 | 5.44 | > 10 | > 10 | > 10 | > 10 | > 10 | > 10 | > 10 | > 10 | > 10 | > 10 | > 10 | > 10 | > 10 | > 10 | IC50 [11]: > 10 µM; IC50 [12]: > 10 µM; EC50 [13]: > 10 µM; IC50 [13]: > 10 µM; IC50 [14]: > 10 µM
2 | CNC(C)C(=O)c1c[nH]c2ccc(Cl)cc12 (stereo not drawn) [BK-5Cl-NM-AMT, 1-(5-chloro-1H-indol-3-yl)-2-(methylamino) propan-1-one hydrochloride] | > 10 | > 10 | > 10 | 0.965 | > 10 | 8.68 | > 10 | > 10 | > 10 | > 10 | > 10 | > 10 | > 10 | > 10 | > 10 | > 10 | > 10 | > 10 | > 10 | > 10 | IC50 [11]: > 10 µM; IC50 [12]: > 10 µM; EC50 [13]: > 10 µM; IC50 [13]: > 10 µM; IC50 [14]: > 10 µM
3 | CNC(C)C(=O)c1c[nH]c2ccc(F)cc12 (stereo not drawn) [BK-5F-NM-AMT, 1-(5-Fluoro-1H-indol-3-yl)-2-(methylamino) propan-1-one hydrochloride] | > 10 | > 10 | > 10 | > 30 | > 10 | > 10 | > 10 | > 10 | > 10 | > 10 | > 10 | > 10 | > 10 | > 10 | > 10 | > 10 | > 10 | > 10 | > 10 | > 10 | IC50 [11]: > 10 µM; IC50 [12]: > 10 µM; EC50 [13]: > 10 µM; IC50 [13]: > 10 µM; IC50 [14]: > 10 µM
